Data: paper PMC8714961, “Involvement of P-gp on Reversing Multidrug Resistance Effects of 23-Hydroxybetulinic Acid on Chemotherapeutic Agents” (Frontiers in Pharmacology, 2021)
Where two headings read alike, the source gives them in different places. Marks after values point to notes of the source that are not given here.

How the values were obtained:
MCF-7/ADR cells [1] = test: Trypan blue exclusion assay, MCF-7/ADR cells; type: cell-based
Procedure: (§1) MCF-7 (human breast carcinoma cells) and MCF-7/ADR (P-gp-overexpressing derivative cells) cell lines were obtained from Blood Diseases Hospital, Chinese Academy of Medica ([Shi et al., 2011]). The cells were routinely maintained in RPMI 1640 with 10% heat-inactivated fetal bovine serum (FBS), 1% non-essential amino acid solution, 0.1 mg/ml streptomycin, and 100 units/ml penicillin. Caco-2 cells were purchased from American Type Culture Collection (ATCC, Rockville, MD, United States). Vector-MDCK and MDR1-MDCK cells were purchased from PharmaResources Co., Ltd. (China). Both Caco-2 and MDCK cells were maintained at Dulbecco’s modified Eagle’s medium (DMEM) with 10% FBS, 1% non-essential amino acid solution, 0.1 mg/ml streptomycin, and 100 units/ml penicillin. MCF-7/ADR cells were treated with […] and were cultured in ADR-free medium for more than 14 days before the experiment. All cells were cultured at 37°C in a humidified atmosphere of 5% CO2.
(§2) Trypan blue exclusion assay was used to measure the viability of cells to compounds. Briefly, MCF-7/sensitive (MCF-7/S) and MCF-7/ADR cells were diluted into the density of 0.5×10^4 cells/ml, then cells (1 ml) were seeded in culture plates. […]. The viable and dead cells (stained in blue) were counted by haemacytometer.

MCF-7/S cells [2] = test: Trypan blue exclusion assay, MCF-7/S cells; type: cell-based; settings: 0.2, 2 and 20 µM with ADR 0.08 µM or VCR 0.5 µM, 48 h
Procedure: as §1, §2

MCF-7/ADR cells [3] = test: Hoechst assay (apoptosis); type: cell-based, human; settings: for Number of apoptosis cells, single agent: vs control group
Procedure: MCF-7/ADR cells were collected and cultured at the density of 2.0 × 10^5/well in 24-well plates. […] The cells were dyed with Hoechst 33,342 (Beyotime, Shanghai, China) in the dark at 37°C for 30 min after washing with phosphate buffered saline (PBS). The morphological changes of the nucleus were evaluated by a fluorescence microscope.

P-gp [4] = target: T1, P-gp (Homo sapiens, UniProt P08183); test: MDCK-MDR1 transport study, inhibition of VCR transport; settings: for Folds (RE) of VCR: vs control
T1 sequence (P08183 whole entry): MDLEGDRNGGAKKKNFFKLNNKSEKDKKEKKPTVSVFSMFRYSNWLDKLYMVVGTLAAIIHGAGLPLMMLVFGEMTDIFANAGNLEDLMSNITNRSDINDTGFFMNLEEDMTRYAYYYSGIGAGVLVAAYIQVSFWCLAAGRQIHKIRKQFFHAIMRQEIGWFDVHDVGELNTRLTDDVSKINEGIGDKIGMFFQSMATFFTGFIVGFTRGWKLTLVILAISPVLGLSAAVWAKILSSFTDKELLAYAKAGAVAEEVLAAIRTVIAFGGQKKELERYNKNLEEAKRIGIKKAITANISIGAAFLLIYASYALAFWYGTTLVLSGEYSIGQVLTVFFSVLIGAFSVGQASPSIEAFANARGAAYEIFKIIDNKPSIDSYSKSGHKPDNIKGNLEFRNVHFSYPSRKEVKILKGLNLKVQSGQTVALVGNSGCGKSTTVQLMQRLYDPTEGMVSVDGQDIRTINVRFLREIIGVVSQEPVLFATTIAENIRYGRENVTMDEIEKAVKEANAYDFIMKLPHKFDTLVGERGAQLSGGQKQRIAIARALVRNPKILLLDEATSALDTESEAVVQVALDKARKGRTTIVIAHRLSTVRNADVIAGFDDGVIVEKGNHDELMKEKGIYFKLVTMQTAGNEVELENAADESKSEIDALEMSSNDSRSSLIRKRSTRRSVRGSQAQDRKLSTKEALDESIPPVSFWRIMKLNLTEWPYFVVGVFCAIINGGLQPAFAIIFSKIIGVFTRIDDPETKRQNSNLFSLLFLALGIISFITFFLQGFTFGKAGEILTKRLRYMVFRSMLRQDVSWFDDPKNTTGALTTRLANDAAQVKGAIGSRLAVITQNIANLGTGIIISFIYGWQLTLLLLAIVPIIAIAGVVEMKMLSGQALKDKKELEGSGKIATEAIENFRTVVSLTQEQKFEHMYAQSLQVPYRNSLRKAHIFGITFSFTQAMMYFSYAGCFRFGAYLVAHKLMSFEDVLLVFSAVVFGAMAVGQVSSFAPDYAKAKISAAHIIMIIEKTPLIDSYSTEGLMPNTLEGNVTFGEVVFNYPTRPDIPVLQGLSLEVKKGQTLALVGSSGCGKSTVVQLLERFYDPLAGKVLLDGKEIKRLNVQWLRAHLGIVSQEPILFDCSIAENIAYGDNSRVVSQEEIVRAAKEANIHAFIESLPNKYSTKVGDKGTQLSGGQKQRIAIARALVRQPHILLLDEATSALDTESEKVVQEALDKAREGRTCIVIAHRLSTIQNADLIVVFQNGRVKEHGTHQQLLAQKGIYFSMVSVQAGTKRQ
Procedure: Briefly, MDCK-MDR1 cells (1×10^5/Well) were seeded onto […] pore-size transwell inserts (Millipore, MA, United States) in 24-well plates.
(§3) The cells were rinsed with warmed Hank’s balanced salt solution (HBSS), and the inserts were incubated for 20 min at 37°C. […] Aliquots (50 µl) were taken from the receiver compartment at intervals of 30, 60, 90, and 120 min and replaced with fresh buffer. In the study, verapamil (VER), known P-gp inhibitor, was selected as positive control.
(§4) The apparent permeability values (Papp) were evaluated in all experiments according to the following equation: Papp=dQ/dt/AC0 (1) where A means the insert area and C0 represents the initial concentration. dQ/dt represents the slope of the cumulative content transported during the time course of the period studied.

[5] = system: MDCK-MDR1 cell monolayers; test: MDCK-MDR1 transport of BA/23-HBA with or without verapamil; settings: for Folds (RE): +VER (verapamil 20 µM) vs without VER
Procedure: Briefly, MDCK-MDR1 cells (1×10^5/Well) were seeded onto […] pore-size transwell inserts (Millipore, MA, United States) in 24-well plates. Cells were cultured for 5–7 days, when the transepithelial electrical resistance (TEER) values were 120–240 Ω cm^2.
as §3, §4
The efflux ratio (ER) was detected according to the ratio of Papp as the following equation: ER=Papp(B−A)/Papp(A−B) (2)

P-gp [6] = target: T1, P-gp; settings: for Folds (RE) of digoxin: vs control
Procedure: Briefly, MDCK-MDR1 cells (1×10^5/Well) were seeded onto 0.4 mm pore-size transwell inserts (Millipore, MA, United States) in 24-well plates.

P-gp [7] = target: T1, P-gp; test: Caco-2 uptake study (digoxin, VCR)
Procedure: Briefly, the cells (1×10^5/Well) were cultured in 24-well plates, and culture medium was changed every other day. The uptake study was taken when the monolayers formed. […] After 2 h incubation, the drug solution was removed to terminate reaction, and the monolayers were washed three times with cold Hank’s solution. The other steps were taken according to the above process in Adriamycin/Vincristine Accumulation Study.

MCF-7/S cells [8] = test: ADR/VCR accumulation study in MCF-7/S cells; settings: ADR/VCR 5 µM, test compound 0.2, 2, 20 µM, 1 h
Procedure: (§5) MCF-7 cells (1×10^5/Well) were incubated in 24-well plates. […] After 1 h incubation, the compound solution was aspirated to stop further accumulation, and the monolayers were rinsed with cold Hank’s solution for three times. The drug content was detected by lysing the cells with ultrasound, and then the single well lysate was transferred to a plastic EP tube for further analysis. The protein concentration of the cells was measured using Coomassie brilliant blue.

P-gp [9] = target: T1, P-gp; test: MDR1 shift assay (UIC2 binding); type: cell-based; parameters: endogenous in cells; host or cells: MCF-7/ADR; settings: 25 µM, MCF-7/ADR cells, vs solvent control
Procedure: The monoclonal antibody UIC2 (2.5 μl) was added and incubated for 15 min, then 1 ml of cold binding buffer was used to terminate reaction. The cells were rinsed twice, followed by adding cold phycoerythrin-labeled anti-mouse IgG (250 μl) for another 15 min in the dark. Finally, cells were rinsed and incubated in cold binding buffer (250 μl) and further evaluated by flow cytometer (Cytomics FC 500; Beckman Coulter, Fullerton, CA). In this study, vincristine (25 µM) was set as positive control.

MCF-7/ADR cells [10] = test: ADR/VCR accumulation study in MCF-7/ADR cells; settings: ADR/VCR 5 µM, test compound 0.2, 2, 20 µM, 1 h
Procedure: as §5

[11] = compound 0.2 µM, +VER (verapamil 20 µM)
[12] = compound 0.2 µM, without verapamil
[13] = compound 2 µM, +VER (verapamil 20 µM)
[14] = compound 2 µM, without verapamil
[15] = compound 20 µM, +VER (verapamil 20 µM)
[16] = compound 20 µM, without verapamil
[17] = digoxin 5 µM with test compound 0.2 µM
[18] = digoxin 5 µM with test compound 2 µM
[19] = digoxin 5 µM with test compound 20 µM

Compound: C=C(C)[C@@H]1CC[C@]2(C(=O)O)CC[C@]3(C)[C@H](CC[C@@H]4[C@@]5(C)CC[C@H](O)[C@@](C)(CO)[C@@H]5CC[C@]43C)[C@@H]12 [23-HBA, 23-hydroxybetulinic acid]
- Cytotoxicity of combination exposure with ADR to MCF-7/ADR (MCF-7/ADR cells [1]; 0–20 µM with ADR 3 µM): showed significant cytotoxicity to MCF-7/ADR
- Cell toxicity as a single agent (MCF-7/ADR cells [1]; 0–20 µM, single agent): no cell toxicity was detected
- Effect on cytotoxicity of MCF-7/ADR cells to ADR or VCR (MCF-7/ADR cells [1]; 0.2, 2 and 20 µM with ADR 3 µM or VCR 6 µM, 48 h): can increase cytotoxicity of MCF-7/ADR cells to ADR or VCR in concentration-dependent manner
- Effect on cytotoxicity of MCF-7/S cells to ADR or VCR (MCF-7/S cells [2]): neither 23-HBA nor BA showed significant effects on cytotoxicity
- Number of apoptosis cells, single agent (MCF-7/ADR cells [3]; 20 µM alone): not obviously different with the control group
- Apoptosis caused by ADR in combination exposure (MCF-7/ADR cells [3]; 2 and 20 µM with ADR 3 µM): dose-dependent (2 and 20 μM) increase in the apoptosis caused by ADR
- Papp A→B of VCR (P-gp [4]; VCR with test compound 0.2 µM): 0.69 ± 0.30 ×10^−6 cm s^−1
- Papp B→A of VCR (P-gp [4]; VCR with test compound 0.2 µM): 4.45 ± 1.12 ×10^−6 cm s^−1
- RE (net efflux) of VCR (P-gp [4]; VCR with test compound 0.2 µM): 6.41
- Folds (RE) of VCR (P-gp [4]; VCR with test compound 0.2 µM): 1.70
- Papp A→B of VCR (P-gp [4]; VCR with test compound 2 µM): 2.49 ± 0.59 ×10^−6 cm s^−1
- Papp B→A of VCR (P-gp [4]; VCR with test compound 2 µM): 0.39 ± 0.01 ×10^−6 cm s^−1
- RE (net efflux) of VCR (P-gp [4]; VCR with test compound 2 µM): 0.16
- Folds (RE) of VCR (P-gp [4]; VCR with test compound 2 µM): 70.15
- Papp A→B of VCR (P-gp [4]; VCR with test compound 20 µM): 2.19 ± 1.74 ×10^−6 cm s^−1
- Papp B→A of VCR (P-gp [4]; VCR with test compound 20 µM): 0.48 ± 0.08 ×10^−6 cm s^−1
- RE (net efflux) of VCR (P-gp [4]; VCR with test compound 20 µM): 0.22
- Folds (RE) of VCR (P-gp [4]; VCR with test compound 20 µM): 49.32
- ER values ([5]; MDCK-MDR1 cells, all the concentrations (0.2–20 µM)): less than 1.5
- Papp A-B [5, 11]: 8.49 ± 1.39 ×10^−6 cm s^−1
- Papp B-A [5, 11]: 5.20 ± 0.59 ×10^−6 cm s^−1
- RE (net efflux) [5, 11]: 0.61**
- Folds (RE) ([5]; compound 0.2 µM): 0.41
- Papp A-B [5, 12]: 6.73 ± 0.09 ×10^−6 cm s^−1
- Papp B-A [5, 12]: 10.01 ± 1.38 ×10^−6 cm s^−1
- RE (net efflux) [5, 12]: 1.49
- Papp A-B [5, 13]: 10.03 ± 3.22 ×10^−6 cm s^−1
- Papp B-A [5, 13]: 7.83 ± 0.32 ×10^−6 cm s^−1
- RE (net efflux) [5, 13]: 0.78*
- Folds (RE) ([5]; compound 2 µM): 0.63
- Papp A-B [5, 14]: 7.07 ± 0.64 ×10^−6 cm s^−1
- Papp B-A [5, 14]: 8.75 ± 0.31 ×10^−6 cm s^−1
- RE (net efflux) [5, 14]: 1.24
- Papp A-B [5, 15]: 12.76 ± 1.13 ×10^−6 cm s^−1
- Papp B-A [5, 15]: 7.47 ± 1.64 ×10^−6 cm s^−1
- RE (net efflux) [5, 15]: 0.59
- Folds (RE) ([5]; compound 20 µM): 0.82
- Papp A-B [5, 16]: 5.95 ± 0.94 ×10^−6 cm s^−1
- RE (net efflux) [5, 16]: 0.72
- RE (net efflux) of digoxin (P-gp [6]; [17]): 31.57
- Folds (RE) of digoxin (P-gp [6]; [17]): 1.16
- RE (net efflux) of digoxin (P-gp [6]; [18]): 27.96
- Folds (RE) of digoxin (P-gp [6]; [18]): 1.31
- RE (net efflux) of digoxin (P-gp [6]; [19]): 2.69
- Folds (RE) of digoxin (P-gp [6]; [19]): 13.61
- Inhibitory effect compared with verapamil (20 µM) in Caco-2 cells (P-gp [7]; 20 µM): higher than that of verapamil
- Effect on uptake of VCR and digoxin in Caco-2 cells (P-gp inhibition) (P-gp [7]; 0.2, 2 and 20 µM, 2 h): showed dose-dependent increase on the penetration of VCR and digoxin
- Accumulation of ADR/VCR in sensitive MCF-7 cells (MCF-7/S cells [8]): little impact was observed
- Fluorescence intensity of UIC2 binding (MDR1 shift) (P-gp [9]): fluorescence intensity showed slight increase
- Intracellular accumulation of ADR/VCR in resistant MCF-7 cells (MCF-7/ADR cells [10]): obviously increased

Compound: COc1cccc2c1C(=O)c1c(O)c3c(c(O)c1C2=O)C[C@@](O)(C(=O)CO)C[C@@H]3O[C@H]1C[C@H](N)[C@H](O)[C@H](C)O1 [ADR, Adriamycin, reference compound]
- Number of apoptosis cells, single agent (MCF-7/ADR cells [3]; 3 µM alone): not obviously different with the control group
